From patent US8877741B2, “Pyrrolidine derivatives, pharmaceutical compositions and uses thereof” (Boehringer Ingelheim International GmbH, priority 2013, dated 2014)

Biological target: human ACC2 (Homo sapiens (Human), UniProt O00763)
Assay: ACC2 assay, spectrophotometric 384 well assay (NADH-linked kinetic method)
Type: biochemical
Conditions: human ACC2 construct lacking the 128 N-terminal amino acids; coupled lactate dehydrogenase/pyruvate kinase reaction, 340 nm, 25° C.
Summary of the method: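 N-terminally truncated human ACC2 (lacking 128 residues), expressed in insect cells, was coupled to pyruvate kinase/lactate dehydrogenase, with NADH and acetyl-CoA at 2000 μM and ATP at 500 μM final. The OD340 decrease was followed over 15 min at 25 °C. Slopes were normalised to vehicle and no-acetyl-CoA controls, and IC50 came from four-parameter regression.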

Sequence of human ACC2 (O00763 129-2458): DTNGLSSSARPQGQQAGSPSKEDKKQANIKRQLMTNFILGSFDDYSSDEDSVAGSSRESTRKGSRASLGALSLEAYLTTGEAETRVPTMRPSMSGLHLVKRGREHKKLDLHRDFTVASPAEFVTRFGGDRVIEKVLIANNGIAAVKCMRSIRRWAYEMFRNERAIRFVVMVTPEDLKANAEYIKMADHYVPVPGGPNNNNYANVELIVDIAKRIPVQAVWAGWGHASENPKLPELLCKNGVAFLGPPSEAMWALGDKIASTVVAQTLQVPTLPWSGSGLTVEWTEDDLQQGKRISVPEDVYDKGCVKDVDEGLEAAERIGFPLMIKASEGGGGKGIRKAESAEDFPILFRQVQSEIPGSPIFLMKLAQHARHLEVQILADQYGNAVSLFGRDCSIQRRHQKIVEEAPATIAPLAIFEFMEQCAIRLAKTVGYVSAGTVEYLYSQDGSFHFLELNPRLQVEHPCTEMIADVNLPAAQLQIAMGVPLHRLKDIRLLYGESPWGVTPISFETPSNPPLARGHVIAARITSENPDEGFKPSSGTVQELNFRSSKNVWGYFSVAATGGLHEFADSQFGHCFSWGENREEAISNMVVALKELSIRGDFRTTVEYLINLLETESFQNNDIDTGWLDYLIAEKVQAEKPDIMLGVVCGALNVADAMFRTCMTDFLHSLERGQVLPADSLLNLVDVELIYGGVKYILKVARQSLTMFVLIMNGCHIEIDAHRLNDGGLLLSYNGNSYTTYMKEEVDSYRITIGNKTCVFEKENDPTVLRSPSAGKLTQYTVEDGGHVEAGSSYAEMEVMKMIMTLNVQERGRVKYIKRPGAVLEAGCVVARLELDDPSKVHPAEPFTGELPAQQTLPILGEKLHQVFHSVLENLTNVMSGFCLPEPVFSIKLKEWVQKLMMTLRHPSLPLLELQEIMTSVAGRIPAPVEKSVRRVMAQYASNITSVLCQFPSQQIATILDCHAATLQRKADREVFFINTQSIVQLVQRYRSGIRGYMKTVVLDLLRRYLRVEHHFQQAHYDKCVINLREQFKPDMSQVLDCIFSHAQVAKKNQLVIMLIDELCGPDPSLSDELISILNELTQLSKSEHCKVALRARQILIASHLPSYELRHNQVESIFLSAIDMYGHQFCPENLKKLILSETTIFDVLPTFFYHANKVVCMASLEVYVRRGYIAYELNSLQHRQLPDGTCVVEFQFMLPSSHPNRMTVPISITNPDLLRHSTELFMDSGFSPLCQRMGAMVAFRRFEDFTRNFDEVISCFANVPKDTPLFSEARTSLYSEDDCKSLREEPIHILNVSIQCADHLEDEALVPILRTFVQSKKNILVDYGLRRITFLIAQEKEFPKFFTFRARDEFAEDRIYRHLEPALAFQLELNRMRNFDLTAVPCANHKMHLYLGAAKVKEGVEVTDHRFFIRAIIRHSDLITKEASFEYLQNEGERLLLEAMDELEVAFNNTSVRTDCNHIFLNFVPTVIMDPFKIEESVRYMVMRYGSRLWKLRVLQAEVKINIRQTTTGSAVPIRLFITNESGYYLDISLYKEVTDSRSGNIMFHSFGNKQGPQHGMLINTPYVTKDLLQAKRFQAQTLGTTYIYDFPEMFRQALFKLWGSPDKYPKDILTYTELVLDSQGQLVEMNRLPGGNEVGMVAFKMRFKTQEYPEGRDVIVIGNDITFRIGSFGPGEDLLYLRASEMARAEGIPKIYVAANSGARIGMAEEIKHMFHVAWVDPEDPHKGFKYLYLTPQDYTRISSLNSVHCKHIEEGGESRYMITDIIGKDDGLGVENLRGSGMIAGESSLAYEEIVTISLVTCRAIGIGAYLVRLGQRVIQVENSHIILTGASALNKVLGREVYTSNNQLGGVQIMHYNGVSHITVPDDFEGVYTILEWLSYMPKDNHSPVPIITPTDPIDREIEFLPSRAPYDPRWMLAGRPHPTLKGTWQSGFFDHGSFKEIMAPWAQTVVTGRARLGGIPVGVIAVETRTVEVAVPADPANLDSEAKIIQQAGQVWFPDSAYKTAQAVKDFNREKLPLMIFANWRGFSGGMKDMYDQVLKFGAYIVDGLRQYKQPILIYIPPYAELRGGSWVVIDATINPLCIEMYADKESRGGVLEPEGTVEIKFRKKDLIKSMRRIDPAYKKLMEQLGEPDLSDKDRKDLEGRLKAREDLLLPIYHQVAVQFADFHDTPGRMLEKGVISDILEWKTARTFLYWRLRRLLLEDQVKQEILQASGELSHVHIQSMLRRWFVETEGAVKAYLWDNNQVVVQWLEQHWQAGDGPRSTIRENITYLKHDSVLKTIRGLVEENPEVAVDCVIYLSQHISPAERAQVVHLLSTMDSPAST

| Compound | IC50 [nM] |
| --- | --- |
| CC(=O)Nc1nc(C)c(C(=O)N[C@@H](C)c2ccc(O[C@@H]3CCN(c4ccnc(OC(C)C)c4)C3)cc2)s1 [Example 1.49] | 179 |
| C[C@H](NC(=O)c1cc[nH]n1)c1ccc(OC2CCN(c3cccc(C(F)(F)F)n3)C2)cc1 (stereo partly drawn) [Example 2.64] | 45 |
| CCCOc1nccc(N2CC[C@@H](Oc3ccc([C@H](C)NC(C)=O)cc3)C2)c1OC [Example 1.121] | 41 |
| CC(=O)N[C@@H](C)c1ccc(OC2CCN(c3ccc(OCCCF)nc3)C2)cc1 (stereo partly drawn) [Example 1.88] | 423 |
| CC(=O)N[C@@H](C)c1ccc(OC2CCN(c3ccc(OC4CC4)cn3)C2)cc1 (stereo partly drawn) [Example 1.66] | 384 |
| CC(=O)N[C@@H](C)c1ccc(O[C@@H]2CCN(c3ccc(OCC4CC(F)(F)C4)cn3)C2)cc1 [Example 1.123] | 228 |
| CC(=O)N[C@@H](C)c1ccc(O[C@@H]2CCN(c3ccnc(NCC4CC4)c3F)C2)cc1 [Example 1.114] | 43 |
| CC(=O)N[C@@H](C)c1ccc(OC2CCN(c3ncc(OCC4CC4)cc3F)C2)cc1 (stereo partly drawn) [Example 1.7] | 137 |
| C[C@H](NC(=O)[C@@H](C)O)c1ccc(OC2CCN(c3ccnc(OCC4CC4)c3)C2)cc1 (stereo partly drawn) [Example 2.78] | 799 |
| C[C@H](NC(=O)c1cncs1)c1ccc(O[C@@H]2CCN(c3ccc(OCCCF)cn3)C2)cc1 [Example 1.82] | 110 |
| COc1c(N2CC[C@@H](Oc3ccc([C@H](C)NC(C)=O)cc3)C2)ccnc1N1CCCC1 [Example 1.136] | 476 |
| C[C@H](NC(=O)C(F)F)c1ccc(OC2CCN(c3ccnc(OCC(F)F)c3)C2)cc1 (stereo partly drawn) [Example 2.97] | 140 |
| C[C@H](NC(=O)N1CCOCC1)c1ccc(OC2CCN(c3ccc(OCC4CC4(F)F)cn3)C2)cc1 (stereo partly drawn) [Example 3.10] | 112 |
| CC(=O)N[C@@H](C)c1ccc(O[C@@H]2CCN(c3ccnc(OCc4ccccn4)c3)C2)cc1 [Example 9.33] | 535 |
| C[C@H](NC(=O)N1CCOCC1)c1ccc(OC2CCN(c3ccnc(OCC4CC4)c3)C2)cc1 (stereo partly drawn) [Example 3.12] | 144 |
| CC(=O)N[C@@H](C)c1ccc(O[C@@H]2CCN(c3cc(N4CCOCC4)ncc3F)C2)cc1 [Example 10.22] | 552 |
| COC(=O)N[C@@H](C)c1ccc(OC2CCN(c3ccnc(OCC4CC4)c3)C2)cc1 (stereo partly drawn) [Example 4.4] | 70 |
| CC(=O)N[C@@H](C)c1ccc(O[C@@H]2CCN(c3ccnc(OCC4CC4(F)F)c3C)C2)cc1 (stereo partly drawn) [Example 9.60] | 40 |
| C[C@H](NC(=O)c1cnco1)c1ccc(OC2CCN(c3ccc(OC[C@H]4CC4(F)F)cn3)C2)cc1 (stereo partly drawn) [Example 2.92] | 110 |
| CCCOc1cc(N2CC[C@@H](Oc3ccc([C@H](C)NC(=O)C4CC4)cc3)C2)ccn1 [Example 9.37] | 385 |
| C[C@H](NC(=O)c1cnn(C)c1Cl)c1ccc(OC2CCN(c3ccnc(OCC4CC4)c3)C2)cc1 (stereo partly drawn) [Example 2.69] | 281 |
| CC(=O)N[C@@H](C)c1ccc(O[C@@H]2CCN(c3ccnc(NCC4CC4)c3Cl)C2)cc1 [Example 1.138] | 26 |
| COCCN(C)c1nccc(N2CC[C@@H](Oc3ccc([C@H](C)NC(C)=O)cc3)C2)c1F [Example 1.106] | 69 |
| CC(=O)N[C@@H](C)c1ccc(O[C@@H]2CCN(c3ccnc(N4CC(F)(F)C4)c3F)C2)cc1 [Example 1.105] | 59 |
| C[C@H](NC(=O)c1ccnc(C#N)c1)c1ccc(OC2CCN(c3cccc(C(F)(F)F)n3)C2)cc1 (stereo partly drawn) [Example 2.62] | 175 |
| CC(=O)N[C@@H](C)c1ccc(O[C@@H]2CCN(c3ccnc(O[C@@H]4CCC[C@@H]4O)c3)C2)cc1 [Example 9.45] | 500 |

| Compound | IC50 [nM] |
| --- | --- |
| CCC(=O)N[C@@H](C)c1ccc(OC2CCN(c3ccc(OC[C@H]4CC4(F)F)cn3)C2)cc1 (stereo partly drawn) [Example 2.91] | 67 |
| CC(=O)N[C@@H](C)c1ccc(O[C@@H]2CCN(c3cccc(N4CCOCC4C)n3)C2)cc1 (stereo partly drawn) [Example 10.49] | 785 |
| C[C@H](NC(=O)C(C)(F)F)c1ccc(OC2CCN(c3ccc(OCC4CC4(F)F)cn3)C2)cc1 (stereo partly drawn) [Example 2.35] | 276 |
| C[C@H](NC(=O)N1CCCC1)c1ccc(OC2CCN(c3ccc(OCC4CC4(F)F)cn3)C2)cc1 (stereo partly drawn) [Example 3.18] | 423 |
| C[C@H](NC(=O)CCO)c1ccc(OC2CCN(c3cccc(C(F)(F)F)n3)C2)cc1 (stereo partly drawn) [Example 2.55] | 424 |
| CC(=O)N[C@@H](C)c1ccc(OC2CCN(c3ccnc(OCC4CC4)c3)C2)cc1 (stereo partly drawn) [Example 1.35] | 414 |
| C[C@H](NC(=O)C1(C)CC1)c1ccc(OC2CCN(c3cccc(C(F)(F)F)n3)C2)cc1 (stereo partly drawn) [Example 2.40] | 139 |
| CCc1cccc(N2CCC(Oc3ccc([C@H](C)NC(C)=O)cc3)C2)n1 (stereo partly drawn) [Example 1.60] | 202 |
| CC(=O)N[C@@H](C)c1ccc(OC2CCN(c3ccc(F)c(C)n3)C2)cc1 (stereo partly drawn) [Example 1.65] | 107 |
| C[C@H](NC(=O)C1CC1)c1ccc(O[C@@H]2CCN(c3ccnc(OCC4CC4)c3)C2)cc1 [Example 9.39] | 149 |
| CCC(C)Oc1ccc(N2CCC(Oc3ccc([C@H](C)NC(C)=O)cc3)C2)nc1 (stereo partly drawn) [Example 1.28] | 245 |
| C[C@H](NC(=O)C(F)(F)C(F)(F)F)c1ccc(O[C@@H]2CCN(c3cccc(C(F)(F)F)n3)C2)cc1 [Example 7.1, 2,2,3,3,3-Pentafluoro-N—((S)-1-(4-((R)-1-(6-(trifluoromethyl)pyridin-2-yl)pyrrolidin-3-yloxy)phenyl)ethyl)propanamide] | 400 |
| CC(=O)N[C@@H](C)c1ccc(OC2CCN(c3ccc(OCC4CC4(F)F)nc3)C2)cc1 (stereo partly drawn) [Example 1.42] | 219 |
| C[C@H](NC=O)c1ccc(O[C@@H]2CCN(c3cccc(C(F)(F)F)n3)C2)cc1 [Example 12, N—((S)-1-(4-((R)-1-(6-(Trifluoromethyl)pyridin-2-yl)pyrrolidin-3-yloxy)phenyl)ethyl) formamide] | 888 |
| Cc1cc(CC(=O)N[C@@H](C)c2ccc(OC3CCN(c4ccnc(OC(C)C)c4)C3)cc2)on1 (stereo partly drawn) [Example 2.31] | 964 |
| CC(=O)Nc1nc(C)c(C(=O)N[C@@H](C)c2ccc(O[C@@H]3CCN(c4ccnc(OCC5CC5)c4)C3)cc2)s1 [Example 1.43] | 59 |
| CCC(C)Oc1cc(N2CC[C@@H](Oc3ccc([C@H](C)NC(C)=O)cc3)C2)ccn1 (stereo partly drawn) [Example 9.4] | 75 |
| CSc1ccc(N2CCC(Oc3ccc([C@H](C)NC(C)=O)cc3)C2)nc1 (stereo partly drawn) [Example 1.69] | 387 |
| CC(=O)N[C@@H](C)c1ccc(O[C@@H]2CCN(c3ccnc(OC(C)c4ccccc4)c3)C2)cc1 (stereo partly drawn) [Example 9.19] | 330 |
| COC(=O)N[C@@H](C)c1ccc(OC2CCN(c3ccnc(OCC(F)F)c3)C2)cc1 (stereo partly drawn) [Example 4.5] | 166 |
| CC(=O)N[C@@H](C)c1ccc(OC2CCN(c3cccc(C4(S(C)(=O)=O)CC4)n3)C2)cc1 (stereo partly drawn) [Example 1.79] | 950 |
| C[C@H](NC(=O)C(C)(C)F)c1ccc(OC2CCN(c3ccnc(OCC4CC4)c3)C2)cc1 (stereo partly drawn) [Example 2.80] | 122 |
| CNC(=O)c1cccc(C(=O)N[C@@H](C)c2ccc(OC3CCN(c4ccc(OCC5CC5)cc4)C3)cc2)n1 (stereo partly drawn) [Example 2.2] | 705 |
| CCOc1ccc(N2CCC(Oc3ccc([C@H](C)NC(C)=O)cc3)C2)nc1 (stereo partly drawn) [Example 1.6] | 306 |
| CC(=O)N[C@@H](C)c1ccc(O[C@@H]2CCN(c3ccc(OC[C@@H]4CC4(F)F)cn3)C2)cc1 [Example 1.117] | 753 |
